Test in all cases: NCI tumour cell line growth inhibition, 48 h
Test [1] concerns KM12 colon.
The test system of test [2] is UACC-62 melanoma.
The test system of test [3] is TK-10 renal.
The subject of test [4] is HOP-62 NSCLC.
Test [5] concerns SNB-19 CNS.
The subject of test [6] is SK-MEL-2 melanoma.
Test [7] has as its system OVCAR-8 ovarian.
Test [8] has as its system OVCAR-5 ovarian.
Test [9] deals with BT-549 breast.
For test [10], the system named is PC-3 prostate.

The values that follow come from PubChem BioAssay (NCI).

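Cells were grown in 96-well plates and exposed to each compound for 48 hours at five concentrations; endpoints were interpolated linearly between bracketing concentrations, or set to the highest concentration if not reached. GI50 = concentration required for 50% inhibition of growth. TGI is the concentration that stops growth completely.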

In the case of `COC(=O)/C(=C\c1c(C)[nH]c2ccccc12)S(=O)(=O)c1ccccc1`, the GI50 in [1] is 2.37 µM; in test [2], 2.77 µM; in test [3] it was 8.07 µM; in test [4], 7.69 µM; in test [5] it was 7.59 µM; in [6], 10.6 µM. The GI50 in [7] is 3.94 µM; in test [8], 17.4 µM; in test [9] it was 5.4 µM; in [10], 5.54 µM. For the same compound, the TGI in test [1] worked out at 6.31 µM; in test [2] it was 13.3 µM; in [3], 96.6 µM; in test [4] it was 29.4 µM; in [5], 22.1 µM; in [6] it was 25.5 µM. The TGI in [7] is over 100 µM; in test [8] it was 38 µM; in [9] it was 25.5 µM; in test [10], over 100 µM.
Take `O=C(C(Br)Br)C(Br)C(Br)c1ccccc1` (stereo not given): the GI50 in test [1] was 14.2 µM; in test [2], 3.25 µM; in test [3], 2.47 µM; in [4], 2.74 µM; in test [5], 17.4 µM; in [6] it was 13.7 µM. The GI50 in [7] is 3.16 µM; in test [8] it was 6.6 µM; in test [9] it was 3.97 µM; in test [10], 3.67 µM. Further, the TGI in [1] is 28.5 µM; in test [2], 11.5 µM; in [3], 4.78 µM; in test [4], 8.1 µM; in test [5], 35.2 µM; in test [6], 35.7 µM. In addition, the TGI in test [7] is over 100 µM; in test [8] it was 22.2 µM; in test [9], 14.1 µM; in [10], 15.2 µM.
As for `O=C(NC(=S)Nc1ccc(Cl)cc1)c1ccccc1`, the GI50 in [1] is over 100 µM; in test [2], over 50.4 µM; in [3] it was over 100 µM; in test [4], over 61.7 µM; in test [5], over 79.2 µM; in test [6] it was over 100 µM. Besides, the GI50 in [7], in [8], in test [9] and in [10] was over 100 µM each time. The TGI in test [1], in [2], in test [3], in [4], in [5] and in test [6] was over 100 µM each time. Besides, the TGI in test [7], in [8], in test [9] and in test [10] was over 100 µM each time.
For the compound `COc1c(O)ccc2c1CN1CCc3cc4c(cc3C1C2)OCO4` (stereo not given), the TGI in test [1] was over 100 µM; in [2], over 100 µM; in [3], over 79.6 µM; in test [4], over 100 µM; in test [5] it was over 100 µM; in test [6], over 92.9 µM. The TGI in test [7], in test [8], in test [9] and in test [10] was over 100 µM each time.
Consider `CN(C)CCCNC(=O)c1cc(NC(=O)c2cc(NC(=O)c3cc(NC(=O)CCc4c[nH]c5ccccc45)cn3C)cn2C)cn1C`, for which the GI50 in [1], in test [2], in test [3], in [4], in test [5] and in test [6] was over 100 µM in each case. For the same compound, the GI50 in [7], in test [8], in [9] and in [10] was over 100 µM each time. The TGI in [1], in test [2], in [3], in test [4], in test [5] and in test [6] was over 100 µM in each case. Moreover, the TGI in test [7], in test [8], in [9] and in test [10] was over 100 µM each time.
For the compound `O=C1C(=O)c2ccccc2C(O)=C1C(CCc1ccccc1)C1=C(O)c2ccccc2C(=O)C1=O`, the TGI in test [1] was over 100 µM; in test [2] it was 34.5 µM; in [3], over 100 µM; in test [4], over 100 µM; in [5], over 100 µM; in test [6] it was over 100 µM. Besides, the TGI in test [7], in [8], in test [9] and in test [10] was over 100 µM each time.
Regarding `Cn1c(=O)c2[nH]c(CS(=O)(=O)Cc3nc4c([nH]3)c(=O)n(C)c(=O)n4C)nc2n(C)c1=O`, the TGI in test [1], in test [2], in [3], in test [4], in [5] and in test [6] was over 100 µM in each case. The TGI in test [7], in [8], in test [9] and in test [10] was over 100 µM throughout.
As for `CN(C)c1ccc2c3c(c(=O)oc2c1)CCC3`, the TGI in test [1], in test [2], in test [3], in [4], in test [5] and in test [6] was over 100 µM in each case. For the same compound, the TGI in [7], in test [8], in test [9] and in test [10] was over 100 µM in each case.
Turning to `O=C(Nc1ncc(Cc2ccccc2Cl)s1)c1ccc2c(c1)OCCO2`, the GI50 in test [1] is 0.322 µM; in [2] it was 0.569 µM; in test [3], 0.672 µM; in test [4] it was 0.592 µM; in [5] it was 0.548 µM; in [6], 0.667 µM. Moreover, the GI50 is 0.479 µM in [7], 0.747 µM in [8], 0.567 µM in [9] and 0.417 µM in test [10]. Besides, the TGI was over 35.6 µM in test [1]; over 43.3 µM in test [2]; over 40 µM in test [3]; over 82.9 µM in test [4]; over 45.5 µM in [5]; over 69.6 µM in [6]. For the same compound, the TGI in test [7], in [8], in test [9] and in [10] was over 100 µM throughout.
`C[C@]12CC[C@@H]3c4ccc(O)cc4CC[C@H]3[C@@H]1CC[C@@H]2NS(=O)(=O)Cc1ccc(Cl)cc1`: the GI50 in [1] is 2.05 µM; in test [2], 1.92 µM; in [3], 3.5 µM; in [4] it was 2.97 µM; in test [5], 3.66 µM; in test [6] it was 2.54 µM. For the same compound, the GI50 is 2.52 µM in test [7], 3.76 µM in test [8], 2.35 µM in test [9] and 2.64 µM in test [10]. Moreover, the TGI was 4.39 µM in test [1]; 4.56 µM in test [2]; 14.9 µM in test [3]; 8.14 µM in [4]; 47.1 µM in test [5]; 6.35 µM in test [6]. The TGI in test [7] is 7.58 µM; in [8], 14.2 µM; in [9] it was 5.74 µM; in test [10] it was 15 µM.
As to `COc1ccc(/C=C\c2cc(OC)c(OC)c(OC)c2)cc1OCC(=O)Nc1nc2ccc(C(F)(F)F)cc2s1`, the GI50 in [1] is 3.14 µM; in test [2] it was 3.9 µM; in test [3], 7.03 µM; in [4] it was 5.22 µM; in test [5] it was 5.03 µM; in [6], 3.98 µM. Also, the GI50 was 3.86 µM in [7], 5.98 µM in test [8], 5.23 µM in test [9] and 4.32 µM in test [10]. Further, the TGI in test [1] is 11.5 µM; in test [2], over 100 µM; in test [3], over 100 µM; in test [4], over 100 µM; in [5], over 100 µM; in test [6], over 100 µM. Moreover, the TGI in test [7], in test [8], in test [9] and in test [10] was over 100 µM in each case.
On to `O=C(Oc1ccc(CCl)cc1)c1ccccc1`, for which the GI50 in [1] is 0.166 µM; in [2] it was 0.164 µM; in [3], 0.174 µM; in test [4], 0.17 µM; in [5], 0.187 µM; in test [6], 0.175 µM. Further, the GI50 in test [7] is 0.155 µM; in [8] it was 0.161 µM; in [9] it was 0.154 µM; in test [10], 0.15 µM. In addition, the TGI in test [1] worked out at 0.323 µM; in [2], 0.361 µM; in test [3], 0.33 µM; in test [4], 0.333 µM; in [5] it was 0.495 µM; in test [6], 0.358 µM. For the same compound, the TGI in test [7] was found to be 0.291 µM; in [8] it was 0.302 µM; in test [9] it was 0.295 µM; in [10], 0.332 µM.
For the compound `COc1ccc2[nH]c(Cl)c(/C=C3/C(=O)N(C)c4ccccc43)c2c1`, the GI50 in [1] was 16.9 µM; in test [2] it was 71 µM; in test [3] it was over 100 µM; in test [4], 92 µM; in test [5], 48.9 µM; in test [6] it was over 100 µM. Also, the GI50 in [7], in test [8], in test [9] and in test [10] was over 100 µM each time. The TGI in [1] was 34.7 µM; in test [2], over 100 µM; in test [3] it was over 100 µM; in test [4], over 100 µM; in test [5], over 100 µM; in [6], over 100 µM. Moreover, the TGI in test [7], in [8], in [9] and in test [10] was over 100 µM in each case.
Regarding `CCOC(CN=c1nc(N(C)C)ss1)OCC`, the TGI in [1] was 38.9 µM; in [2], 21.4 µM; in test [3], 73.5 µM; in test [4] it was over 100 µM; in test [5], over 77.4 µM; in test [6], 48.9 µM. In addition, the TGI in test [7] was determined as 46.7 µM; in [8] it was 44.1 µM; in [9] it was 55.5 µM; in test [10], 32 µM.
As to `O=[N+]([O-])/C=C/c1c[nH]c2ccccc12`, the GI50 in test [1] is 14.6 µM; in test [2], 17.4 µM; in test [3], 16.8 µM; in [4], 21.4 µM; in test [5] it was 18.4 µM; in test [6], 18.6 µM. Besides, the GI50 is 21.6 µM in test [7], 17.8 µM in test [8], 14.1 µM in test [9] and 24.2 µM in test [10]. Further, the TGI in test [1] was 31 µM; in test [2], 32.3 µM; in test [3] it was 30.7 µM; in test [4], 36.5 µM; in test [5] it was 35.4 µM; in [6], 37.8 µM. Also, the TGI in test [7] came out at 49.4 µM; in test [8], 35.2 µM; in test [9] it was 27.5 µM; in test [10], 64.8 µM.
Turning to `CCN(CC)CCOc1ccc(/C=C2\CC3C4CC=C5C[C@@H](N6CCCC6)CC[C@]5(C)C4CC[C@]3(C)[C@H]2O)cc1OC` (stereo not given in full), the GI50 was 2.67 µM in test [1]; 16.6 µM in test [2]; 9.64 µM in test [3]; 5.82 µM in test [4]; 6.2 µM in test [5]; 9.64 µM in [6]. The GI50 in [7] was 5.16 µM; in [8] it was 24 µM; in [9], 4.7 µM; in test [10], 4.66 µM. Also, the TGI in [1] is 11.9 µM; in test [2], 34.6 µM; in test [3], 37.2 µM; in [4], 15.3 µM; in [5], over 63.5 µM; in [6] it was over 100 µM. Also, the TGI was over 40.8 µM in test [7], over 72.8 µM in test [8], 19.3 µM in test [9] and 45.3 µM in test [10].
Take `CCSc1nc(N=Cc2cccs2)c2cn[nH]c2n1`: the GI50 in test [1] was 3.31 µM; in [2] it was 8.39 µM; in [3], 9.47 µM; in [4], 53.8 µM; in [5] it was 45.2 µM; in test [6], 26.2 µM. In addition, the GI50 was 55.9 µM in test [7], 14.2 µM in test [8], over 100 µM in test [9] and 20.7 µM in test [10]. Besides, the TGI in test [1] was 16.1 µM; in test [2], 23.1 µM; in test [3], 41.1 µM; in [4], over 100 µM; in test [5], over 100 µM; in test [6], over 100 µM. Moreover, the TGI in [7] is over 100 µM; in test [8], 50.9 µM; in test [9], over 100 µM; in test [10] it was over 100 µM.
